Reference: US9663523B2, “BET protein-inhibiting 5-aryltriazoleazepines” (BAYER PHARMA AKTIENGESELLSCHAFT, priority 2012, dated 2017)

How the values were obtained:
[1] = tested on: MOLM-13 cells; assay: Cell proliferation (alamarBlue), MOLM-13; format: cell-based; settings: Homo sapiens, acute myeloid leukaemia cell line, 96 hours incubation
Method in brief: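 Cells seeded at 4000/well, fluorescence read after overnight at 37° C, then compound-treated for 96 h (MOLM-13, MDA-MB-231), 120 h (MOLP-8) or 168 h (LAPC-4). AlamarBlue fluorescence at start subtracted from end value and compared with buffer-treated cells.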

[2] = biological target: BRD4(1) (amino acids 44-168) (Homo sapiens (Human), UniProt O60885); assay: BRD4 binding strength, TR-FRET (HTRF) assay of BRD4(1) / acetylated histone H4 peptide interaction; settings: inhibition of BRD4(1)/Ac-H4 peptide interaction
[3] = tested on: MOLP-8 cells; assay: Cell proliferation (alamarBlue), MOLP-8; format: cell-based; settings: Homo sapiens, multiple myeloma cell line, 120 hours incubation
Description: (§1) The ability of the compounds according to the invention to inhibit the proliferation of various cell lines was determined.
(§2) Cell viability was determined by means of the alamarBlue® reagent (Invitrogen). The cells were sown at different densities (MOLM-13, LAPC-4, MOLP-8 and MDA-MB-231: 4000 cells/well; B16F10: 400 cells/well) in 100 μl of growth medium on 96-well microtitre plates. After overnight incubation at 37° C., the fluorescence values (CI values) were determined. The plates were then treated with various substance dilutions and incubated at 37° C. for 96 hours (MOLM-13, MDA-MB-231 and B16F10 cells), 120 hours (MOLP-8 cells) or 168 hours (LAPC-4 cells). Subsequently, the fluorescence values were determined (CO values).
(§3) The compounds according to the invention were tested in the cell lines in Table 2, which represent the indications specified by way of example:
(§4) The indications corresponding to the different cell lines can be found in Table 2.

[4] = tested on: MDA-MB-231 cells; assay: Cell proliferation (alamarBlue), MDA-MB-231; format: cell-based; settings: Homo sapiens, mammary carcinoma cell line, 96 hours incubation
Description: as §1
as §2, with “values). For the data analysis, the CI values were subtracted from the CO values and the results were compared between cells which had been treated with various dilutions of the substance or only with buffer solution.” for “values).”
as §3, §4

[5] = tested on: B16F10 cells; assay: Cell proliferation (alamarBlue), B16F10; format: cell-based; settings: Mus musculus, B16-F10; melanoma cell line, 96 hours incubation
Method in brief: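 Mouse B16F10 cells were plated at 400 cells/well in 100 μl of growth medium in 96-well microtitre plates and incubated overnight at 37° C. Initial fluorescence (CI) was then read with alamarBlue® reagent. Cells were exposed to serial compound dilutions for 96 hours at 37° C before final fluorescence (CO) was read. CI was subtracted from CO and compared with buffer-treated controls.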

[6] = tested on: LAPC-4 cells; assay: Cell proliferation (alamarBlue), LAPC-4; format: cell-based; settings: Homo sapiens, LAPC4; prostate carcinoma (androgen receptor-positive) cell line, 168 hours incubation
Description: as §1, §2, §3, §4

Row | SMILES | IC50 [1] [nM] | IC50 [2] [nM] | IC50 [3] [nM] | IC50 [4] [nM] | IC50 [5] [nM] | IC50 [6] [nM]
1 | Cc1nnc2n1-c1ccccc1C(c1ccc(Cl)cc1)=CC2CC(=O)N1CC2(COC2)C1 (stereo in doubt) [Example 4, (−)-2-[(4R)-6-(4-chlorophenyl)-1-methyl-4H-[1,2,4]triazolo[4,3-a][1]benzazepin-4-yl]-1-(2-oxa-6-azaspiro[3.3]hept-6-yl)ethanone] | 360 | 130 | 740 | 2370 | 550 | 660
2 | Cc1nnc(CC2C=C(c3ccc(Cl)cc3)c3ccccc3-n3c(C)nnc32)o1 (stereo in doubt) [Example 38, (−)-(4R)-6-(4-chlorophenyl)-1-methyl-4-[(5-methyl-1,3,4-oxadiazol-2-yl)methyl]-4H-[1,2,4]triazolo[4,3-a][1]benzazepine] | 120 | 20 | 45 | 110 | 60 | 40
3 | Cc1nnc2n1-c1ccccc1C(c1ccc(Cl)cc1)=CC2CC(=O)N1CCOCC1 (centres unmarked) [Example 14, 2-[6-(4-chlorophenyl)-1-methyl-4H-[1,2,4]triazolo[4,3-a][1]-benzazepin-4-yl]-1-(morpholin-4-yl)ethanone] | 460 | 310 |  | 1010 | 410 | 210
4 | Cc1nnc2n1-c1ccccc1C(c1ccc(Cl)cc1)=CC2CC(=O)N1CC(F)C1 (centres unmarked) [Example 16, 2-[6-(4-chlorophenyl)-1-methyl-4H-[1,2,4]triazolo[4,3-a][1]benzazepin-4-yl]-1-(3-fluoroazetidin-1-yl)ethanone] | 530 | 220 |  | 1040 | 460 | 260
5 | Cc1nnc2n1-c1ccccc1C(c1ccc(Cl)cc1)=C[C@H]2CC(=O)N1CC2(CCS2(=O)=O)C1 [Example 19, (−)-2-[(4R)-6-(4-chlorophenyl)-1-methyl-4H-[1,2,4]triazolo[4,3-a][1]benzazepin-4-yl]-1-(1,1-dioxido-1-thia-6-azaspiro[3.3]hept-6-yl)ethanone] | 150 |  | 190 | 380 | 160 | 170
6 | Cc1nnc2n1-c1ccccc1C(c1ccc(Cl)cc1)=CC2CC(=O)Nc1ccc2c(c1)CC(=O)N2 (centres unmarked) [Example 20, 2-[6-(4-chlorophenyl)-1-methyl-4H-[1,2,4]triazolo[4,3-a][1]benzazepin-4-yl]-N-(2-oxo-2,3-dihydro-1H-indol-5-yl)acetamide] | 540 | 240 |  | 980 | 350 | 140
7 | Cc1nnc2n1-c1ccccc1C(c1ccc(Cl)cc1)=CC2CC(=O)N1C2CCC1CC(=O)C2 (centres unmarked) [Example 22] | 1730 | 340 |  | 2900 | 840 | 210
8 | Cc1nnc2n1-c1ccccc1C(c1ccc(Cl)cc1)=CC2CC(=O)N1CC(Oc2ccccc2)C1 (centres unmarked) [Example 24, 2-[6-(4-chlorophenyl)-1-methyl-4H-[1,2,4]triazolo[4,3-a][1]benzazepin-4-yl]-1-(3-phenoxyazetidin-1-yl)ethanone] | 2940 | 220 |  | 2530 | 1050 | 550
9 | Cc1nnc2n1-c1ccccc1C(c1ccc(Cl)cc1)=C[C@H]2CC(=O)N1CC(Oc2ccccc2)C1 [Example 25, (−)-2-[(4R)-6-(4-chlorophenyl)-1-methyl-4H-[1,2,4]triazolo[4,3-a][1]benzazepin-4-yl]-1-(3-phenoxyazetidin-1-yl)ethanone] | 1130 | 1400 | 590 | 1330 | 490 | 170
10 | Cc1nnc2n1-c1ccccc1C(c1ccc(Cl)cc1)=CC2CC(=O)N1CCC(=O)C1 (centres unmarked) [Example 26, 1-{[6-(4-chlorophenyl)-1-methyl-4H-[1,2,4]triazolo[4,3-a][1]benzazepin-4-yl]acetyl}pyrrolidin-3-one] | 830 | 40 | 380 | 1360 | 610 | 310
11 | Cc1nnc2n1-c1ccccc1C(c1ccc(Cl)cc1)=C[C@H]2CC(=O)N1CCC(=O)C1 [Example 27, (−)-1-{[(4R)-6-(4-chlorophenyl)-1-methyl-4H-[1,2,4]triazolo[4,3-a][1]benzazepin-4-yl]acetyl}pyrrolidin-3-one] | 250 | 110 |  | 710 | 340 | 180
12 | Cc1nnc2n1-c1ccccc1C(c1ccc(Cl)cc1)=CC2CC(=O)N1CCC2(CCCC2)CC1 (centres unmarked) [Example 28, 1-(8-azaspiro[4.5]dec-8-yl)-2-[6-(4-chlorophenyl)-1-methyl-4H-[1,2,4]triazolo[4,3-a][1]benzazepin-4-yl]ethanone] | > 10000 | 1400 | 6300 | > 10000 | 7050 | 1200
13 | Cc1nnc2n1-c1ccccc1C(c1ccc(Cl)cc1)=C[C@H]2CC(=O)N1CCC2(CCCC2)CC1 [Example 29, (−)-1-(8-azaspiro[4.5]dec-8-yl)-2-[(4R)-6-(4-chlorophenyl)-1-methyl-4H-[1,2,4]triazolo[4,3-a][1]benzazepin-4-yl]ethanone] | 2960 | 1800 | 1670 | 4730 | 2120 | 670
14 | Cc1nnc2n1-c1ccccc1C(c1ccc(Cl)cc1)=CC2CC(=O)N1CCS(=O)(=O)C1 (centres unmarked) [Example 30, 2-[6-(4-chlorophenyl)-1-methyl-4H-[1,2,4]triazolo[4,3-a][1]benzazepin-4-yl]-1-(1,1-dioxido-1,3-thiazolidin-3-yl)ethanone] | 850 | 80 |  | 1130 | 490 | 190
15 | Cc1nnc2n1-c1ccccc1C(c1ccc(Cl)cc1)=C[C@H]2CC(=O)N1CCS(=O)(=O)C1 [Example 31, (−)-2-[(4R)-6-(4-chlorophenyl)-1-methyl-4H-[1,2,4]triazolo[4,3-a][1]benzazepin-4-yl]-1-(1,1-dioxido-1,3-thiazolidin-3-yl)ethanone] | 190 | 180 |  | 560 | 220 | 80
16 | Cc1nnc2n1-c1ccccc1C(c1ccc(Cl)cc1)=CC2CC(=O)N1CC2CCC(C1)O2 (centres unmarked) [Example 32, 2-[6-(4-chlorophenyl)-1-methyl-4H-[1,2,4]triazolo[4,3-a][1]benzazepin-4-yl]-1-(8-oxa-3-azabicyclo[3.2.1]oct-3-yl)ethanone] | 1810 | 390 |  | 2040 | 800 | 250
17 | Cc1noc(C[C@H]2C=C(c3ccc(Cl)cc3)c3ccccc3-n3c(C)nnc32)n1 [Example 35, (−)-6-[(4R)-4-chlorophenyl]-1-methyl-4-[(3-methyl-1,2,4-oxadiazol-5-yl)methyl]-4H-[1,2,4]triazolo[4,3-a][1]benzazepine] | 160 | 30 | 130 | 210 | 150 | 80
